# From patent US7947739B2, “Tranexamic acid formulations” (Ferring B.V., priority 2004, dated 2011)
# Like-named read-outs stand apart in the source and are kept apart here.
# What was measured:
# women with menorrhagia [1] = experiment: Example 9: 6-cycle placebo-controlled study, menstrual blood loss (MBL) by alkaline hematin test; format: in vivo, human; settings: 3.9 g/day
# women with menorrhagia [2] = experiment: Example 8: 3-cycle placebo-controlled study, menstrual blood loss (MBL) by alkaline hematin test, also stratified by fibroids; format: in vivo, human; settings: 3 cycles
# [3] = cited from earlier work; for dose excreted unchanged in the urine: IV 1 g
# [4] = Published pharmacokinetics of tranexamic acid (Pilbrant et al.; Cyklokapron NDA); format: in vivo; settings: human, serum, single 1.3 g oral dose, fasting, approx. 65% of 2 g dose published data
# Protocol: By comparison, the in vivo absorption profile observed with the European immediate-release formulation is slow and very gradual over 3 hours. Specifically, tranexamic acid serum concentrations are 9, 41, 73, 88 percent (with food), and 22, 63, 85, and 98 percent (fasting) of maximal absorption at 0.5, 1, 1.5 and 2 hours after a 2 g oral dose, respectively.
# Tranexamic acid is minimally bound (approximately 3%) to plasma proteins (mainly plasminogen) at “typical” therapeutic plasma concentrations of approximately 5-15 mg/L. The main route of elimination of tranexamic acid is renal glomerular filtration. After oral administration of tranexamic acid (250 or 500 mg) to healthy adults, between 40-70% of the administered dose is excreted unchanged in the urine within 24 hours. After IV administration (1 g) 30% of the dose is excreted unchanged in the urine within one hour, 45-55% within 2-3 hours and 90% within 24 hours.
# For this reason, the concentration-time profile of tranexamic acid was estimated by simulating the data over 36 hours, after oral administration of a 1.3 g dose under fasting conditions, using NONMEM. Based on the simulation results, it would be appropriate to collect blood samples until 36 hours in order to characterize the AUC, Cmax, tmax, t½ and F.
# [5] = Example 6: compartmental pharmacokinetic analysis; format: in vivo; settings: female, human, plasma, oral, 1.3 g; 295 mL/min×0.449; read-out: systemic clearance (CL)
# Protocol: Compartmental analysis was performed on tranexamic acid data following single and multiple oral administrations of the modified release (MR) tablet formulation. Multiple compartmental models were constructed and their ability to fit plasma concentrations of tranexamic acid were evaluated using a standard two-stage (STS) approach with ADAPT-II (maximum likelihood analysis). The discrimination process was performed by computing the Akaike Information Criterion Test (AIC), the minimum value of the objective function (OBJ) and by looking at pertinent graphical representations of goodness of fit (e.g. fitted and observed concentrations versus time).
# The final analysis was performed using an iterative two-stage approach with the IT2S® software. This software uses a population methodology which allows one to provide robust PK parameter estimates on an individual subject and population basis. All relevant pharmacokinetic parameters were calculated and reported. Concentrations were modeled using a weighting procedure of Wj=1/Sj^2 where the variance σj^2 was calculated for each observation using the equation σj^2=(a+b*Yj)^2 where a and b are the intercept and slope of each variance model. […] The analysis included the quantitative estimation of population PK parameters and interindividual variability of tranexamic acid in plasma.
# women with menorrhagia [6] = experiment: Example 8: 3-cycle study, Menorrhagia Instrument measures (MIQ Q1-Q6), responders, sanitary products, large stains; format: in vivo, human
# [7] = Example 6: single dose followed by multiple doses study, noncompartmental plasma pharmacokinetics, linearity, steady state; format: in vivo, human; settings: 1.3 g every 8 hours
# Protocol: After an overnight fast, subjects received a single oral dose of tranexamic acid (1.3 g) on Day 1. Blood samples were taken before dosing and up to 36 hours post-dose. Subjects received another single oral dose of tranexamic acid (1.3 g) on the evening of Day 2, and 3 times a day (every 8 hours) starting on the morning of Day 3 until the last dose on the morning of Day 7. Blood samples were taken before the 6th, 9th, 12th and 15th dose (the last dose) for the determination of Cmin, and up to 8 hours after the last dose, for the determination of drug concentration at steady-state. Subjects were housed from at least 10 hours before the 1st dose on Day 1 until after the 8-hour blood draw following the 15th dose (on Day 7). […]
# Calculations for plasma tranexamic acid were calculated by noncompartmental methods using the following pharmacokinetic parameters in Tables 15 and 16:
# Descriptive statistics including arithmetic means, standard deviations and coefficients of variation were calculated on the individual concentration and pharmacokinetic data. Additionally, geometric means were calculated for the parameters AUC0-t, AUCinf, and Cmax for Day 1 and AUCτ, Cmax and Cmin for Day 7. […]
# The ratio of LSM was calculated using the exponentiation of the Day LSM from the analysis on the In-transformed response. The ratio was expressed as a percentage relative to AUCinf (Day 1). […]
# heavy menstrual bleeding = settings: cited from earlier work
# women with menorrhagia [8] = experiment: Example 9: 6-cycle study, Menorrhagia Instrument measures, responders, sanitary products, large stains; format: in vivo, human
# [9] = 3.9 g/day compared with placebo
compound,measurement,setting,value
"NC[C@H]1CC[C@H](C(=O)O)CC1 [tranexamic acid, trans-4-(aminomethyl)cyclohexanecarboxylic acid]",mean reduction in MBL from baseline,"women with menorrhagia [1]; […], 6-cycle study",69.6 mL
same,percent MBL reduction compared with baseline,"women with menorrhagia [1]; […], 6-cycle study",40.4%
same,regression slope of response over the six menstrual cycles,women with menorrhagia [1]; p=0.615,−0.90 mL/cycle
same,mean reduction in MBL from baseline,women with menorrhagia [2]; 1.95 g/day,46.5 mL
same,percent MBL reduction compared with baseline,women with menorrhagia [2]; 1.95 g/day,26.1%
same,mean reduction in MBL from baseline,women with menorrhagia [2]; 3.9 g/day,65.3 mL
same,percent MBL reduction compared with baseline,women with menorrhagia [2]; 3.9 g/day,38.6%
same,therapeutic antifibrinolytic range (therapeutic window),[3]; Cyklokapron NDA 19-280,5 to 15 µg/mL
same,dose excreted unchanged in the urine,[3]; within 2-3 hours,45-55%
same,dose excreted unchanged in the urine,[3]; within 24 hours,90%
same,dose excreted unchanged in the urine,[3]; within one hour,30%
same,urinary recovery,"[3]; Pilbrant, et al.",exceeded 95 % of the dose
same,gamma elimination half-life,[3]; after IV administration,approximately 7 hours
same,bound to plasma proteins,[3]; at therapeutic plasma concentrations of approximately 5-15 mg/L,approximately 3%
same,beta elimination half-life,[3]; in vivo,2 h
same,excreted unchanged drug in the urine,[3]; in vivo,more than 95%
same,typical therapeutic plasma concentrations,[3]; in vivo,5 to 15 mg/L
same,administered dose excreted unchanged in the urine,"[3]; oral 250 or 500 mg, healthy adults, within 24 hours",40-70%
same,AUC(0-t),[4]; read-out: expected mean AUC0-6,~40000 ng·h/mL
same,Cmax,[4]; read-out: expected mean Cmax,~10000 ng/mL
same,clearance,[5],123 mL/min
same,"mean LPA score, change from baseline",women with menorrhagia [6]; 3-cycle study,Significant treatment-related reductions
same,"mean LSLA score, change from baseline",women with menorrhagia [6]; 3-cycle study,Significant treatment-related reductions
same,LWH (MI measure 2),women with menorrhagia [6]; [9],significantly reduced
same,subjects' assessments of MBL (MI item 1),women with menorrhagia [6]; [9],significantly reduced
same,proportion of responders,"women with menorrhagia [6]; 3.9 g/day, first menstrual cycle, reduction in MBL and meaningful improvement (MI 6c)",71.0%
same,difference between the LSM of predose Day 6 and 7,[7],less than 2%
same,"largest difference in predose plasma concentrations, LSM of predose Day 5 compared to Day 6 and 7",[7],less than 10%
same,women satisfied with the treatment,"heavy menstrual bleeding; Winkler open label uncontrolled usage study, 849 patients",80%
same,reduction of heavy menstrual bleeding,heavy menstrual bleeding; research from European countries,40-50%
same,LWH (MI measure #2),women with menorrhagia [8]; [9],significantly reduced
same,subjects' assessments of MBL (MI measure #1),women with menorrhagia [8]; [9],significantly reduced
same,"mean LPA score, change from baseline",women with menorrhagia [8]; 6-cycle study,significant treatment-related reductions
same,"mean LSLA score, change from baseline",women with menorrhagia [8]; 6-cycle study,significant treatment-related reductions
